Several values for one entry are separate records, joined by “and”; a condition that tells them apart may be missing. Equal values may be shown once.
System: 521955-158-R2-J5-PDC complex spheroids, viability
Assay: Anticancer human tumor 521955-158-R2-J5-PDC patient-derived pancreatic carcinoma cell line growth inhibition [RAS]
Conditions: for viability, T/C: stronger effect = lower value
Summary of the method: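 Multi-cell-type spheroids: tumor cells plus HUVEC endothelial cells and mesenchymal stem cells. RAS-pathway inhibitors were combined with targeted agents, each dosed in half-log steps down from clinical Cmax, or from 10 microM when Cmax was unknown.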

[1] = curve of first compound, second compound 0.0316 µM
[2] = curve of first compound, second compound 0.1 µM
[3] = curve of first compound, second compound 0.316 µM
[4] = curve of first compound, second compound 1 µM
[5] = curve of first compound, second compound 3.16 µM
[6] = curve of first compound, second compound 10 µM
[7] = second compound 0.0316 µM, first compound 0.0316 µM
[8] = second compound 0.0316 µM, first compound 0.1 µM
[9] = second compound 0.0316 µM, first compound 0.316 µM
[10] = second compound 0.0316 µM, first compound 1 µM
[11] = second compound 0.1 µM, first compound 0.0316 µM
[12] = second compound 0.1 µM, first compound 0.1 µM
[13] = second compound 0.1 µM, first compound 0.316 µM
[14] = second compound 0.1 µM, first compound 1 µM
[15] = second compound 0.316 µM, first compound 0.0316 µM
[16] = second compound 0.316 µM, first compound 0.1 µM
[17] = second compound 0.316 µM, first compound 0.316 µM
[18] = second compound 0.316 µM, first compound 1 µM
[19] = second compound 1 µM, first compound 0.0316 µM
[20] = second compound 1 µM, first compound 0.1 µM
[21] = second compound 1 µM, first compound 0.316 µM
[22] = second compound 1 µM, first compound 1 µM
[23] = second compound 3.16 µM, first compound 0.0316 µM
[24] = second compound 3.16 µM, first compound 0.1 µM
[25] = second compound 3.16 µM, first compound 0.316 µM
[26] = second compound 3.16 µM, first compound 1 µM
[27] = second compound 10 µM, first compound 0.0316 µM
[28] = second compound 10 µM, first compound 0.1 µM
[29] = second compound 10 µM, first compound 0.316 µM
[30] = second compound 10 µM, first compound 1 µM
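Note: compound exposure lasted seven days before the viability read.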
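Throughout, for viability, T/C: spheroids also contain HUVEC endothelial cells and mesenchymal stem cells as stroma.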

`C=CC(=O)N1CCN(c2nc(OCC3CCCN3C)nc3c(F)c(-c4nc(N)cc(C)c4C(F)(F)F)c(Cl)cc23)C(C)C1` (stereo not drawn) + C#Cc1c(F)ccc2cc(O)cc(-c3ncc4c(N5CC6CCC(C5)N6)nc(OCC56CCCN5CC(F)C6)nc4c3F)c12 was tested, and the IC50 [1] was greater than 1000 nM, the IC50 [2] was greater than 1000 nM and the IC50 [3] was greater than 1000 nM. The IC50 [4] was greater than 1000 nM, the IC50 [5] was less than 3.16 nM and the IC50 [6] was less than 3.16 nM. It also gave a viability, T/C (second compound 0.0316 µM, first compound 0.00316 µM) of 61.3%, a viability, T/C (second compound 0.0316 µM, first compound 0.01 µM) of 63.1% and a viability, T/C [7] of 74.1%. It also gave a viability, T/C [8] of 57.2%, a viability, T/C [9] of 55.6% and a viability, T/C [10] of 71.8%. It also gave a viability, T/C (second compound 0.1 µM, first compound 0.00316 µM) of 55.9%, a viability, T/C (second compound 0.1 µM, first compound 0.01 µM) of 64.8% and a viability, T/C [11] of 58.7%. The viability, T/C [12] was 48.8%, the viability, T/C [13] was 56.6% and the viability, T/C [14] was 61.8%. For the same compound, the viability, T/C (second compound 0.316 µM, first compound 0.00316 µM) was 53.2%, the viability, T/C (second compound 0.316 µM, first compound 0.01 µM) was 56.8% and the viability, T/C [15] was 58.5%. For the same compound, the viability, T/C [16] was 54.8%, the viability, T/C [17] was 52.8% and the viability, T/C [18] was 52.1%. For the same compound, the viability, T/C (second compound 1 µM, first compound 0.00316 µM) was 48%, the viability, T/C (second compound 1 µM, first compound 0.01 µM) was 72.6% and the viability, T/C [19] was 47.1%. It also gave a viability, T/C [20] of 60.7%, a viability, T/C [21] of 53.2% and a viability, T/C [22] of 59.2%. For the same compound, the viability, T/C (second compound 3.16 µM, first compound 0.00316 µM) was 42.4%, the viability, T/C (second compound 3.16 µM, first compound 0.01 µM) was 52.1% and the viability, T/C [23] was 54.8%. The viability, T/C [24] was 56.9%, the viability, T/C [25] was 50.6% and the viability, T/C [26] was 47.2%. For the same compound, the viability, T/C (second compound 10 µM, first compound 0.00316 µM) was 40%, the viability, T/C (second compound 10 µM, first compound 0.01 µM) was 56.9% and the viability, T/C [27] was 38.3%. It also gave a viability, T/C [28] of 43.6%, a viability, T/C [29] of 39.3% and a viability, T/C [30] of 29.8%.

`NC1c2ccccc2OC12CCN(c1cnc3c(N4CCCc5ncccc54)n[nH]c3n1)CC2` (stereo not drawn) + C#Cc1c(F)ccc2cc(O)cc(-c3ncc4c(N5CC6CCC(C5)N6)nc(OCC56CCCN5CC(F)C6)nc4c3F)c12 gave an IC50 [1] of less than 31.6 nM, an IC50 [2] of 35.2 nM and an IC50 [3] of less than 31.6 nM. It also gave an IC50 [4] of less than 31.6 nM, an IC50 [5] of less than 31.6 nM and an IC50 [6] of less than 31.6 nM. The viability, T/C [7] was 49.8%, the viability, T/C [8] was 38.6% and the viability, T/C [9] was 32.1%. It also gave a viability, T/C [10] of 19.2%, a viability, T/C (second compound 0.0316 µM, first compound 3.16 µM) of 16.3% and a viability, T/C (second compound 0.0316 µM, first compound 10 µM) of 9.96%. For the same compound, the viability, T/C [11] was 50.6%, the viability, T/C [12] was 42.4% and the viability, T/C [13] was 26.2%. It also gave a viability, T/C [14] of 16.9%, a viability, T/C (second compound 0.1 µM, first compound 3.16 µM) of 14.2% and a viability, T/C (second compound 0.1 µM, first compound 10 µM) of 10.4%. The viability, T/C [15] was 44%, the viability, T/C [16] was 35.5% and the viability, T/C [17] was 21.9%. The viability, T/C [18] was 12.9%, the viability, T/C (second compound 0.316 µM, first compound 3.16 µM) was 12.2% and the viability, T/C (second compound 0.316 µM, first compound 10 µM) was 7.43%. The viability, T/C [19] was 35%, the viability, T/C [20] was 31.7% and the viability, T/C [21] was 23.9%. It also gave a viability, T/C [22] of 13.1%, a viability, T/C (second compound 1 µM, first compound 3.16 µM) of 12.5% and a viability, T/C (second compound 1 µM, first compound 10 µM) of 8.41%. The viability, T/C [23] was 32.1%, the viability, T/C [24] was 25.3% and the viability, T/C [25] was 17.8%. The viability, T/C [26] was 11.1%, the viability, T/C (second compound 3.16 µM, first compound 3.16 µM) was 5.56% and the viability, T/C (second compound 3.16 µM, first compound 10 µM) was 3.9%. The viability, T/C [27] was 21.3%, the viability, T/C [28] was 16% and the viability, T/C [29] was 5.5%. It also gave a viability, T/C [30] of 4.22%, a viability, T/C (second compound 10 µM, first compound 3.16 µM) of 3.21% and a viability, T/C (second compound 10 µM, first compound 10 µM) of 1.47%.

`C[C@@H](NC(=O)c1ncnc(N)c1Cl)c1ncc(C(=O)Nc2cc(C(F)(F)F)c(Cl)cn2)s1` + CCn1c(-c2cccnc2C(C)OC)c2c3cc(ccc31)N1CCOC(CC(NC(=O)C(C(C)C)N(C)C(=O)C3(F)CCN(C(=O)C#CC(C)(C)N(C)C)CC3)C(=O)N3CCCC(N3)C(=O)OCC(C)(C)C2)C1 gave an IC50 (curve of first compound, second compound 0.000949 µM) of 5930 nM, an IC50 (curve of first compound, second compound 0.003 µM) greater than 10000 nM and an IC50 (curve of first compound, second compound 0.00949 µM) greater than 10000 nM. The IC50 (curve of first compound, second compound 0.03 µM) was 10000 nM, the IC50 (curve of first compound, second compound 0.0949 µM) was greater than 10000 nM and the IC50 (curve of first compound, second compound 0.3 µM) was 1510 nM. It also gave a viability, T/C (second compound 0.000949 µM, first compound 0.0316 µM) of 137%, a viability, T/C (second compound 0.000949 µM, first compound 0.1 µM) of 100% and a viability, T/C (second compound 0.000949 µM, first compound 0.316 µM) of 84.3%. For the same compound, the viability, T/C (second compound 0.000949 µM, first compound 1 µM) was 70.1%, the viability, T/C (second compound 0.000949 µM, first compound 3.16 µM) was 55.1% and the viability, T/C (second compound 0.000949 µM, first compound 10 µM) was 53.1%. It also gave a viability, T/C (second compound 0.003 µM, first compound 0.0316 µM) of 111%, a viability, T/C (second compound 0.003 µM, first compound 0.1 µM) of 121% and a viability, T/C (second compound 0.003 µM, first compound 0.316 µM) of 85.6%. The viability, T/C (second compound 0.003 µM, first compound 1 µM) was 73.2%, the viability, T/C (second compound 0.003 µM, first compound 3.16 µM) was 64.2% and the viability, T/C (second compound 0.003 µM, first compound 10 µM) was 56.1%. For the same compound, the viability, T/C (second compound 0.00949 µM, first compound 0.0316 µM) was 118%, the viability, T/C (second compound 0.00949 µM, first compound 0.1 µM) was 94.8% and the viability, T/C (second compound 0.00949 µM, first compound 0.316 µM) was 89%. For the same compound, the viability, T/C (second compound 0.00949 µM, first compound 1 µM) was 60.1%, the viability, T/C (second compound 0.00949 µM, first compound 3.16 µM) was 70.7% and the viability, T/C (second compound 0.00949 µM, first compound 10 µM) was 63.6%. The viability, T/C (second compound 0.03 µM, first compound 0.0316 µM) was 91.1%, the viability, T/C (second compound 0.03 µM, first compound 0.1 µM) was 126% and the viability, T/C (second compound 0.03 µM, first compound 0.316 µM) was 69.1%. The viability, T/C (second compound 0.03 µM, first compound 1 µM) was 59.6%, the viability, T/C (second compound 0.03 µM, first compound 3.16 µM) was 68.6% and the viability, T/C (second compound 0.03 µM, first compound 10 µM) was 48%. It also gave a viability, T/C (second compound 0.0949 µM, first compound 0.0316 µM) of 122%, a viability, T/C (second compound 0.0949 µM, first compound 0.1 µM) of 99% and a viability, T/C (second compound 0.0949 µM, first compound 0.316 µM) of 79.6%. For the same compound, the viability, T/C (second compound 0.0949 µM, first compound 1 µM) was 56.7%, the viability, T/C (second compound 0.0949 µM, first compound 3.16 µM) was 60.4% and the viability, T/C (second compound 0.0949 µM, first compound 10 µM) was 58.8%. For the same compound, the viability, T/C (second compound 0.3 µM, first compound 0.0316 µM) was 131%, the viability, T/C (second compound 0.3 µM, first compound 0.1 µM) was 98% and the viability, T/C (second compound 0.3 µM, first compound 0.316 µM) was 71.6%. It also gave a viability, T/C (second compound 0.3 µM, first compound 1 µM) of 46.8%, a viability, T/C (second compound 0.3 µM, first compound 3.16 µM) of 48.1% and a viability, T/C (second compound 0.3 µM, first compound 10 µM) of 46.1%.

With `CCn1c(-c2cc(N3CCN(C)CC3)cnc2C(C)OC)c2c3cc(ccc31)-c1csc(n1)CC(NC(=O)C1CC1C)C(=O)N1CCCC(N1)C(=O)OCC(C)(C)C2` (stereo not drawn) the viability, T/C (compound 0.000949 µM) was 46.5% [middle of 8 runs], the viability, T/C (compound 0.003 µM) was 40.6% [middle of 8 runs] and the viability, T/C (compound 0.00949 µM) was 37.5% [middle of 8 runs]. The viability, T/C (compound 0.03 µM) was 21.3% [middle of 8 runs], the viability, T/C (compound 0.0949 µM) was 12.8% [middle of 8 runs] and the viability, T/C (compound 0.3 µM) was 10.2% [middle of 8 runs]. The IC50 (compound alone, run of 05/20/2024) was < 0.949 nM and 1.04 nM.

Source: PubChem BioAssay AID2060900 (Molecular Pharmacology Branch, DTP, NCI, 2025)
